Publication PMC9457746, “Synthesis of Sulfonamides Incorporating Piperidinyl-Hydrazidoureido and Piperidinyl-Hydrazidothioureido Moieties and Their Carbonic Anhydrase I, II, IX and XII Inhibitory Activity” (Molecules, 2022)

Tests used:
hCA I = hCA I (Homo sapiens, UniProt P00915); experiment: stopped flow CO2 hydrase assay, hCA I inhibition
Method: (§1) An Applied Photophysics stopped-flow instrument has been used for assaying the CA catalyzed CO2 hydration activity using the Khalifah procedure [23]. The used indicator was phenol red (0.2 mM), the absorbance maximum was of 557 nm, and the buffer was 20 mM Hepes (pH 7.5), whereas 20 mM Na2SO4 were employed for maintaining the ionic strength constant. […] Uncatalyzed rates were subtracted from the observed total rates. […] Inhibitor and enzyme solutions were preincubated together for 15 min, for assuring the formation of the E–I complex. The inhibition constants were obtained by non-linear least squares using the Cheng–Prusoff equation, as reported earlier [24, 25, 26] and represent the mean from at least three different determinations.

hCA II = hCA II (Homo sapiens, UniProt P00918); experiment: stopped flow CO2 hydrase assay, hCA II inhibition
Method: as §1

hCA IX = hCA IX (Homo sapiens, UniProt Q16790); experiment: stopped flow CO2 hydrase assay, hCA IX inhibition
Method: as §1

hCA XII = hCA XII (Homo sapiens, UniProt O43570); experiment: stopped flow CO2 hydrase assay, hCA XII inhibition
hCA XII, sequence (O43570 25-354): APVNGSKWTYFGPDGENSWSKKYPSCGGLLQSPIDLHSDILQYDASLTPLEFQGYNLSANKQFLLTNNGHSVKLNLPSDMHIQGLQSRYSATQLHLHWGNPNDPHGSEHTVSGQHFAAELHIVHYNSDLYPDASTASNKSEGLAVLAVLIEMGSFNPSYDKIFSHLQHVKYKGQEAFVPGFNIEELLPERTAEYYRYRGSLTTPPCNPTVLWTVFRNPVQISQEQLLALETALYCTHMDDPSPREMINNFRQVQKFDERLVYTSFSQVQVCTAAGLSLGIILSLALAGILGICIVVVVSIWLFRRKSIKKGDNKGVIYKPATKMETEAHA
Method: as §1

hCA I, sequence (P00915 whole entry): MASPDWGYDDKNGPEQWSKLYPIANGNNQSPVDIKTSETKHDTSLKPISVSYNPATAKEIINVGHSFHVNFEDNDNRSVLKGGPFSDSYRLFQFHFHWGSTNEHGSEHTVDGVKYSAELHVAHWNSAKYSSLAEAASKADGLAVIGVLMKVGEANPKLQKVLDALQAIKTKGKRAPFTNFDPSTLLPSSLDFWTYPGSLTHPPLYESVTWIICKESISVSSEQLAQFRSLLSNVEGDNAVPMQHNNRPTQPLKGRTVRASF

Row | SMILES | melting point | Ki (hCA I) | Ki (hCA II) | Ki (hCA IX) | Ki (hCA XII) | hCA IX, hCA XII/hCA I selectivity (hCA IX; hCA IX and hCA XII versus hCA I) | selectivity of hCA XII inhibition on hCA I and hCA II (hCA XII; hCA XII versus hCA I and hCA II)
1 | Cc1cc(C)cc(NC(=O)NNC(=O)C2CCN(C(=O)c3ccc(S(N)(=O)=O)cc3)CC2)c1 [Compound 5n, N-(3,5-Dimethylphenyl)-2-(1-(4-sulfamoylbenzoyl)piperidine-4-carbonyl)hydrazinecarboxamide] | 216 to 217 °C | 165 nM | 47.8 nM | 34.4 nM | 44.7 nM |  | 
2 | Cc1cccc(NC(=O)NNC(=O)C2CCN(C(=O)c3ccc(S(N)(=O)=O)cc3)CC2)c1 [Compound 5k, 2-(1-(4-Sulfamoylbenzoyl)piperidine-4-carbonyl)-N-(m-tolyl)hydrazinecarboxamide] | 222 to 225 °C | 94.5 nM | 114 nM | 8.2 nM | 15.6 nM |  | 
3 | NS(=O)(=O)c1ccc(C(=O)N2CCC(C(=O)NNC(=S)Nc3ccccc3F)CC2)cc1 [Compound 6n, N-(2-Fluorophenyl)-2-(1-(4-sulfamoylbenzoyl)piperidine-4-carbonyl)hydrazinecarbothioamide] | 219 to 220 °C | 431 nM | 15.2 nM | 6.9 nM | 4.9 nM |  | 
4 | Cc1ccccc1NC(=S)NNC(=O)C1CCN(C(=O)c2ccc(S(N)(=O)=O)cc2)CC1 [Compound 6r, 2-(1-(4-sulfamoylbenzoyl)piperidine-4-carbonyl)-N-(o-tolyl)hydrazine-1-carbothioamide] | 209 to 210 °C | 277 nM | 38.5 nM | 9 nM | 18.4 nM |  | 
5 | COc1cc(NC(=S)NNC(=O)C2CCN(C(=O)c3ccc(S(N)(=O)=O)cc3)CC2)cc(OC)c1OC [Compound 6m, 2-(1-(4-Sulfamoylbenzoyl)piperidine-4-carbonyl)-N-(3,4,5-trimethoxyphenyl)hydrazinecarbothioamide] | > 250 °C | 428 nM | 36.8 nM | 16.6 nM | 27.3 nM |  | 
6 | NS(=O)(=O)c1ccc(C(=O)N2CCC(C(=O)NNC(=S)Nc3c(Cl)cccc3Cl)CC2)cc1 [Compound 6i, N-(2,6-Dichlorophenyl)-2-(1-(4-sulfamoylbenzoyl)piperidine-4-carbonyl)hydrazinecarbothioamide] | 179 to 180 °C | 1340 nM | 21.5 nM | 24.2 nM | 10 nM |  | 
7 | NS(=O)(=O)c1ccc(C(=O)N2CCC(C(=O)NNC(=S)Nc3ccc(Cl)c(Cl)c3)CC2)cc1 [Compound 6g, N-(3,4-Dichlorophenyl)-2-(1-(4-sulfamoylbenzoyl)piperidine-4-carbonyl)hydrazinecarbothioamide] | 232 to 233 °C | 442 nM | 22.4 nM | 4.7 nM | 26.9 nM |  | 
8 | COc1ccc(NC(=S)NNC(=O)C2CCN(C(=O)c3ccc(S(N)(=O)=O)cc3)CC2)cc1 [Compound 6l, N-(4-Methoxyphenyl)-2-(1-(4-sulfamoylbenzoyl)piperidine-4-carbonyl)hydrazinecarbothioamide] | > 250 °C | 211 nM | 15.1 nM | 22.1 nM | 27.8 nM |  | 
9 | COc1ccccc1NC(=S)NNC(=O)C1CCN(C(=O)c2ccc(S(N)(=O)=O)cc2)CC1 [Compound 6j, N-(2-methoxyphenyl)-2-(1-(4-sulfamoylbenzoyl)piperidine-4-carbonyl)hydrazine-1-carbothioamide] | 214 to 215 °C | 160 nM | 13.1 nM | 4.2 nM | 4.6 nM | about 35 fold | 
10 | NS(=O)(=O)c1ccc(C(=O)N2CCC(C(=O)NNC(=S)Nc3ccccc3)CC2)cc1 [Compound 6a, N-phenyl-2-(1-(4-sulfamoylbenzoyl)piperidine-4-carbonyl)hydrazine-1-carbothioamide] | 210 to 211 °C | 30.1 nM | 26.5 nM | 28.8 nM | 3.2 nM |  | about 8 fold
11 | NS(=O)(=O)c1ccc(C(=O)N2CCC(C(=O)NNC(=S)NCc3ccccc3)CC2)cc1 [Compound 6v, N-Benzyl-2-(1-(4-sulfamoylbenzoyl)piperidine-4-carbonyl)hydrazinecarbothioamide] | > 250 °C | 198 nM | 71.4 nM | 24.2 nM | 25 nM |  | 
12 | Cc1cccc(C)c1NC(=O)NNC(=O)C1CCN(C(=O)c2ccc(S(N)(=O)=O)cc2)CC1 [Compound 5m, N-(2,6-Dimethylphenyl)-2-(1-(4-sulfamoylbenzoyl)piperidine-4-carbonyl)hydrazinecarboxanide] | 212 to 213 °C | 364 nM | 62.1 nM | 25.1 nM | 51.2 nM |  | 
13 | NS(=O)(=O)c1ccc(C(=O)N2CCC(C(=O)NNC(=S)Nc3ccc(F)cc3)CC2)cc1 [Compound 6p, N-(4-Fluorophenyl)-2-(1-(4-sulfamoylbenzoyl)piperidine-4-carbonyl)hydrazinecarbothioamide] | 215 to 216 °C | 79.6 nM | 23 nM | 20.1 nM | 15.9 nM |  | 
14 | NS(=O)(=O)c1ccc(C(=O)N2CCC(C(=O)NNC(=O)Nc3c(F)cccc3F)CC2)cc1 [Compound 5i, N-(2,6-difluorophenyl)-2-(1-(4-sulfamoylbenzoyl)piperidine-4-carbonyl)hydrazinecarboxamide] | 194 to 195 °C | 184 nM | 8.6 nM | 10.1 nM | 12.7 nM |  | 
15 | Cc1ccccc1NC(=O)NNC(=O)C1CCN(C(=O)c2ccc(S(N)(=O)=O)cc2)CC1 [Compound 5j, 2-(1-(4-Sulfamoylbenzoyl)piperidine-4-carbonyl)-N-(o-tolyl)hydrazinecarboxamide] | 238 to 240 °C | 67.6 nM | 25.4 nM | 34.5 nM | 60.4 nM |  | 
16 | NS(=O)(=O)c1ccc(C(=O)N2CCC(C(=O)NNC(=O)Nc3ccccc3F)CC2)cc1 [Compound 5f, N-(2-fluorophenyl)-2-(1-(4-sulfamoylbenzoyl)piperidine-4-carbonyl)hydrazinecarboxamide] | 229 to 230 °C | 562 nM | 24.6 nM | 22.5 nM | 8.4 nM |  | 
